Measured values from paper PMC7509035, “[^68Ga]ABY-028: an albumin-binding domain (ABD) protein-based imaging tracer for positron emission tomography (PET) studies of altered vascular permeability and predictions of albumin-drug conjugate transport” (EJNMMI Research, 2020).
Entries after “also recorded” stand apart in the source; their conditions may differ.

Tests used:
[1] = test system: FaDu xenografts; test: Longitudinal dual tracer PET in two FaDu xenografts; format: in vivo, human tumor xenograft in NIH-Foxn1mu rat; conditions: rat, [^18F]FDG
Description: (§1) A431 (human epidermoid carcinoma) and FaDu (human squamous carcinoma of the hypopharynx) cell lines were purchased from American Type Culture Collection (ATCC). The cells were cultured in Dulbecco’s Modified Eagle’s Medium (4500 mg/L D-glucose containing L-glutamine) and were maintained at 37 °C in a humidified atmosphere, containing 5% CO2. All media were additionally supplemented with 1 mM sodium pyruvate, 100 units penicillin/mL, 100 μg streptomycin/mL, and 10% fetal bovine serum (Gibco). Media for FaDu cells were further supplemented with 0.1 mM non-essential amino acids and 2 mM HEPES. The integrity of the cell lines was verified with short tandem repeat profiling cell authentication analysis (LGC Standards).
(§2) Rodents were anaesthetized (1.5% isoflurane (Virbac, Carros Cedex, France) blended with air (7:3) in a vaporizer (E-Z systems) delivered through a Microflex non-rebreather mask (Euthanex Corp)) and then i.v. injected (tail vein) with the radiotracer. PET imaging was performed using a microPET Focus 120 (CTI Concorde Microsystems, Knoxville, TN, USA). Data were acquired in list mode and reconstructed using Filtered Back Projection for the constant bed motion (CBM) scans or, to increase the spatial resolution in the dynamic scans, Ordered Subset […] in 2 dimensions, 4 iterations, and 16 subsets. Data, normalized and corrected for randoms, dead time, and radioactivity decay, were processed using MicroPET Manager and evaluated using the Inveon Research Workplace (IRW) software (Siemens Medical Systems, Malvern, PA, USA). The ROI selections were based on the PET images and the radioactivity in ROIs was calculated as mean or maximum standard uptake values (SUVmean or SUVmax) normalized to body weight. Blood ROIs were delineated on the left ventricle of the heart in the first frames of the scan. Liver ROIs were drawn on one lobe. Muscle ROIs were drawn on the front (rat) and hind (mouse) leg muscle on the images summed over the entire scan. […] Growth of the tumor xenografts was monitored by caliper measurements. […]

[2] = test system: A431 xenografts; test: PET uptake in A431 xenografts after nitroglycerin (NG) ointment; format: in vivo, human tumor xenograft in NIH-Foxn1mu rat; conditions: NG ointment 1 mg/tumor cutaneous, [^68Ga]ABY-028 uptake
Description: as §1, §2

| SMILES | increase of uptake between early and late imaging, day 0 ([1]; both FaDu tumors, 50 to 160 min, day 0) | increase of uptake between early and late imaging, day 3 ([1]; both FaDu tumors, 50 to 160 min, day 3) [%] | decrease of SUV in tumor center, left tumor, day 3 ([1]; left FaDu tumor, area in center extending to one edge, both time points) | effect of NG on tracer radioactivity in A431 xenografts [2] | effect of NG on tracer radioactivity in A431 xenografts ([2]; listed as NG) | effect of NG on tracer radioactivity in A431 xenografts ([2]; listed as Nitroglycerin (NG)) |
| --- | --- | --- | --- | --- | --- | --- |
| O=C[C@H]([18F])[C@@H](O)[C@H](O)[C@H](O)CO [[^18F]FDG, [2-^18F]-2-Fluoro-2-deoxy-D-glucose] | approximately 20% | ~35 | approximately 30% | – | – | – |
| O=[N+]([O-])OCC(CO[N+](=O)[O-])O[N+](=O)[O-] [nitroglycerin, glyceryltrinitrate] | – | – | – | increased radioactivity in the A431 xenografts | A more rapid increase in focal radioactivity levels; also recorded: increased uptake of albumin-bound [^68Ga]ABY-028 | NG-induced changes are revealed by the SUVmax |
